This assay has as its system MV-4-11 cells. As to the kind of experiment: Gene expression microarray analysis (Affymetrix PrimeView) and GSEA. It is filed as cell-based, human. As to conditions: ProbeSet 11743929_at; LIST B. Details: RFU PODN (11730768_x_at) / Fold change /veh PODN (11730768_x_at) / RFU LINC00158 (11744669_a_at) / Fold change /veh LINC00158 (11744669_a_at) / RFU DUSP10 (11751237_a_at) / Fold change /veh DUSP10 (11751237_a_at) / RFU ID3 (11757404_x_at) / Fold change /veh ID3 (11757404_x_at) / RFU PLEKHG5 (11737974_s_at) / Fold change /veh PLEKHG5 (11737974_s_at) / RFU LRRC4B (11730491_at) / Fold change /veh LRRC4B (11730491_at) / RFU GIMAP4 (11747438_a_at) / Fold change /veh GIMAP4 (11747438_a_at) / RFU KRT8 (11758183_x_at) / Fold change /veh KRT8 (11758183_x_at) / RFU CNN1 (11734310_a_at) / Fold change /veh CNN1 (11734310_a_at) / RFU VPS37D (11726825_at) / Fold change /veh VPS37D (11726825_at) / RFU C10orf10 (11716522_x_at) / Fold change /veh C10orf10 (11716522_x_at) / RFU KIR2DL2 /// KIR2DL4 /// KIR2DL5A /// KIR2DL5B /// KIR2DS1 /// KIR2DS2 /// KIR2DS3 /// KIR2DS4 /// KIR3DL3 /// KIR3DL3 /// KIR3DS1 (11738374_at) / Fold change /veh KIR2DL2 /// KIR2DL4 /// KIR2DL5A /// KIR2DL5B /// KIR2DS1 /// KIR2DS2 /// KIR2DS3 /// KIR2DS4 /// KIR3DL3 /// KIR3DL3 /// KIR3DS1 (11738374_at) / RFU C1QL1 (11718748_at) / Fold change /veh C1QL1 (11718748_at) / RFU TMPRSS4 (11747572_a_at) / Fold change /veh TMPRSS4 (11747572_a_at) / RFU HAMP (11756126_x_at) / Fold change /veh HAMP (11756126_x_at) / RFU RNFT2 (11725882_a_at) / Fold change /veh RNFT2 (11725882_a_at) / RFU NR4A2 (11747474_a_at) / Fold change /veh NR4A2 (11747474_a_at) / RFU ABCC12 (11746883_a_at) / Fold change /veh ABCC12 (11746883_a_at) / RFU TMEM136 (11760407_x_at) / Fold change /veh TMEM136 (11760407_x_at) / RFU CLDN22 /// WWC2 (11732394_at) / Fold change /veh CLDN22 /// WWC2 (11732394_at) / RFU HLA-DPB1 (11760878_x_at) / Fold change /veh HLA-DPB1 (11760878_x_at) / RFU SPINT1 (11716480_a_at) / Fold change /veh SPINT1 (11716480_a_at) / RFU GAP43 (11754022_s_at) / Fold change /veh GAP43 (11754022_s_at) / RFU A4GNT (11735810_at) / Fold change /veh A4GNT (11735810_at) / RFU PRB3 (11715151_x_at) / Fold change /veh PRB3 (11715151_x_at) / RFU TUBB4B (11761932_at) / Fold change /veh TUBB4B (11761932_at) / RFU CAPN14 (11732068_a_at) / Fold change /veh CAPN14 (11732068_a_at) / RFU TMCC2 (11721928_a_at) / Fold change /veh TMCC2 (11721928_a_at) / RFU IRGQ (11745062_a_at) / Fold change /veh IRGQ (11745062_a_at) / RFU FAM174B (11720279_a_at) / Fold change /veh FAM174B (11720279_a_at) / RFU TMPRSS4 (11748680_a_at) / Fold change /veh TMPRSS4 (11748680_a_at) / RFU FAM212B (11763350_a_at) / Fold change /veh FAM212B (11763350_a_at) / RFU PLEKHG5 (11743358_a_at) / Fold change /veh PLEKHG5 (11743358_a_at) / RFU ZSCAN30 (11745921_a_at) / Fold change /veh ZSCAN30 (11745921_a_at) / RFU CMKLR1 (11741424_a_at) / Fold change /veh CMKLR1 (11741424_a_at) / RFU LOC101060620 /// MAPK8IP1 (11723275_at) / Fold change /veh LOC101060620 /// MAPK8IP1 (11723275_at) / RFU SPTSSB (11747773_x_at) / Fold change /veh SPTSSB (11747773_x_at) / RFU PRSS12 (11739890_at) / Fold change /veh PRSS12 (11739890_at) / RFU BIN1 (11741810_x_at) / Fold change /veh BIN1 (11741810_x_at) / RFU WNT11 (11732464_a_at) / Fold change /veh WNT11 (11732464_a_at) / RFU C10orf10 (11716521_a_at) / Fold change /veh C10orf10 (11716521_a_at) / RFU C5orf56 (11738089_at) / Fold change /veh C5orf56 (11738089_at) / RFU CYB561 (11721691_x_at) / Fold change /veh CYB561 (11721691_x_at) / RFU ANKRD19P (11752326_a_at) / Fold change /veh ANKRD19P (11752326_a_at) / RFU OR2T12 /// OR2T33 /// OR2T8 (11738714_s_at) / Fold change /veh OR2T12 /// OR2T33 /// OR2T8 (11738714_s_at) / RFU VCAN (11748164_a_at) / Fold change /veh VCAN (11748164_a_at) / RFU JSRP1 (11732532_at) / Fold change /veh JSRP1 (11732532_at) / RFU KRTAP10-11 (11738290_x_at) / Fold change /veh KRTAP10-11 (11738290_x_at) / RFU MYO3A (11730013_a_at) / Fold change /veh MYO3A (11730013_a_at) / RFU EBF3 (11725865_a_at) / Fold change /veh EBF3 (11725865_a_at) / RFU CAMK2N1 (11719241_x_at) / Fold change /veh CAMK2N1 (11719241_x_at) / RFU C5orf56 (11738088_a_at) / Fold change /veh C5orf56 (11738088_a_at) / RFU OLFML3 (11715873_a_at) / Fold change /veh OLFML3 (11715873_a_at) / RFU LOC100653217 /// NTM (11731650_a_at) / Fold change /veh LOC100653217 /// NTM (11731650_a_at) / RFU MAPK11 (11762145_a_at) / Fold change /veh MAPK11 (11762145_a_at) / RFU FIZ1 (11724087_x_at) / Fold change /veh FIZ1 (11724087_x_at) / RFU OASL (11726364_x_at) / Fold change /veh OASL (11726364_x_at) / RFU SOX15 (11748057_x_at) / Fold change /veh SOX15 (11748057_x_at) / RFU CD79A (11719716_a_at) / Fold change /veh CD79A (11719716_a_at) / RFU HIST1H1D (11736915_at) / Fold change /veh HIST1H1D (11736915_at) / RFU CASKIN2 (11723855_a_at) / Fold change /veh CASKIN2 (11723855_a_at) / RFU LOC730098 (11760151_x_at) / Fold change /veh LOC730098 (11760151_x_at) / RFU OR4N2 (11742367_at) / Fold change /veh OR4N2 (11742367_at) / RFU PRRT2 (11749266_a_at) / Fold change /veh PRRT2 (11749266_a_at) / RFU SNX32 (11753110_a_at) / Fold change /veh SNX32 (11753110_a_at) / RFU CDHR5 (11726645_a_at) / Fold change /veh CDHR5 (11726645_a_at) / RFU RCAN1 (11760418_a_at) / Fold change /veh RCAN1 (11760418_a_at) / RFU FAM167A (11723789_a_at) / Fold change /veh FAM167A (11723789_a_at) / RFU FAM26E (11764081_at) / Fold change /veh FAM26E (11764081_at) / RFU ISYNA1 (11749810_s_at) / Fold change /veh ISYNA1 (11749810_s_at) / RFU ACY1 (11761880_at) / Fold change /veh ACY1 (11761880_at) / RFU 11764098_at / Fold change /veh 11764098_at / RFU SAMD14 (11745864_x_at) / Fold change /veh SAMD14 (11745864_x_at) / RFU NPB (11741838_a_at) / Fold change /veh NPB (11741838_a_at) / RFU TMPRSS6 (11731388_a_at) / Fold change /veh TMPRSS6 (11731388_a_at) / RFU KRTAP10-2 (11738614_at) / Fold change /veh KRTAP10-2 (11738614_at) / RFU ARHGAP8 /// PRR5-ARHGAP8 (11727945_x_at) / Fold change /veh ARHGAP8 /// PRR5-ARHGAP8 (11727945_x_at) / RFU KRTAP5-7 /// NADSYN1 (11734609_at) / Fold change /veh KRTAP5-7 /// NADSYN1 (11734609_at) / RFU RASL12 (11751679_a_at) / Fold change /veh RASL12 (11751679_a_at) / RFU CDKN2B (11736163_a_at) / Fold change /veh CDKN2B (11736163_a_at) / RFU PRF1 (11729649_at) / Fold change /veh PRF1 (11729649_at) / RFU, ZNF638 /// ZNF638-IT1 / Fold change vs veh, ZNF638 /// ZNF638-IT1 / RFU, PANK3 / Fold change vs veh, PANK3 / RFU, SH3YL1 / Fold change vs veh, SH3YL1 / RFU, ZEB2 / Fold change vs veh, ZEB2 / RFU, NRIP1 / Fold change vs veh, NRIP1 / RFU, PTTG1IP / Fold change vs veh, PTTG1IP / RFU, CAPN2 / Fold change vs veh, CAPN2 / RFU, MED14 / Fold change vs veh, MED14 / RFU, SNORA58 / Fold change vs veh, SNORA58 / RFU, C1orf63 / Fold change vs veh, C1orf63 / RFU, LRRFIP1 / Fold change vs veh, LRRFIP1 / RFU, NDUFAF7 / Fold change vs veh, NDUFAF7 / RFU, SLC12A2 / Fold change vs veh, SLC12A2 / RFU, IBTK / Fold change vs veh, IBTK / RFU, ESF1 / Fold change vs veh, ESF1 / Fold change vs veh, TMEM50B / RFU, TAOK1 / Fold change vs veh, TAOK1 / RFU, ACBD3 / Fold change vs veh, ACBD3 / RFU, TMA16 / Fold change vs veh, TMA16 / RFU, RWDD3 / Fold change vs veh, RWDD3 / RFU, BCAT1 / Fold change vs veh, BCAT1 / RFU, EDEM3 / Fold change vs veh, EDEM3 / RFU, TMEM33 / Fold change vs veh, TMEM33 / RFU, WDR75 / Fold change vs veh, WDR75 / RFU, AHCTF1 / Fold change vs veh, AHCTF1 / RFU, TFRC / Fold change vs veh, TFRC / RFU, ZDHHC17 / Fold change vs veh, ZDHHC17 / RFU, NOM1 / Fold change vs veh, NOM1 / RFU, ARL8B / Fold change vs veh, ARL8B / RFU, ZBTB11 / Fold change vs veh, ZBTB11 / RFU, TAMM41 / Fold change vs veh, TAMM41 / RFU, KIAA1704 /// LOC100996395 / Fold change vs veh, KIAA1704 /// LOC100996395 / RFU, ING1 / Fold change vs veh, ING1 / RFU, TRMT61B / Fold change vs veh, TRMT61B / RFU, FUBP3 / Fold change vs veh, FUBP3 / RFU, TP53 / Fold change vs veh, TP53 / RFU, TNKS2 / Fold change vs veh, TNKS2 / RFU, ZFP14 / Fold change vs veh, ZFP14 / RFU, ACTR2 / Fold change vs veh, ACTR2 / RFU, PPP3R1 / Fold change vs veh, PPP3R1 / RFU, PIK3R1 / Fold change vs veh, PIK3R1 / RFU, HNRNPA1 / Fold change vs veh, HNRNPA1 / RFU, RNF170 / Fold change vs veh, RNF170 / RFU, ZNF28 / Fold change vs veh, ZNF28 / RFU, RNGTT / Fold change vs veh, RNGTT / RFU, OGT / Fold change vs veh, OGT / RFU, BRD1 / Fold change vs veh, BRD1 / RFU, MARS / Fold change vs veh, MARS / RFU, ZNF655 / Fold change vs veh, ZNF655 / RFU, FAHD1 / Fold change vs veh, FAHD1 / RFU, BDP1 / Fold change vs veh, BDP1 / RFU, LRRCC1 / Fold change vs veh, LRRCC1 / RFU, ARID1A / Fold change vs veh, ARID1A / RFU, ZNF146 / Fold change vs veh, ZNF146 / RFU, ZNF330 / Fold change vs veh, ZNF330 / RFU, GPN3 / Fold change vs veh, GPN3 / RFU, C9orf123 / Fold change vs veh, C9orf123 / RFU, N4BP2L2 / Fold change vs veh, N4BP2L2 / RFU, ARFIP1 / Fold change vs veh, ARFIP1 / RFU, FAM179B / Fold change vs veh, FAM179B / RFU, BCL10 / Fold change vs veh, BCL10 / RFU, UHRF1BP1L / Fold change vs veh, UHRF1BP1L / RFU, BET1 / Fold change vs veh, BET1 / RFU, CNOT2 / Fold change vs veh, CNOT2 / RFU, ZNF268 / Fold change vs veh, ZNF268 / Fold change vs veh, ZNF507 / RFU, DGCR2 / Fold change vs veh, DGCR2 / RFU, WDSUB1 / Fold change vs veh, WDSUB1 / Fold change vs veh, HSP90B1 /// MIR3652 / RFU, ADSS / Fold change vs veh, ADSS / RFU, GK / Fold change vs veh, GK / RFU, ZNF148 / Fold change vs veh, ZNF148 / RFU, TAF9 / Fold change vs veh, TAF9 / RFU, SLC1A5 / Fold change vs veh, SLC1A5 / RFU, SLMO2 / Fold change vs veh, SLMO2 / RFU, ABCC4 / Fold change vs veh, ABCC4 / RFU, LOC101060439 /// RAP1B / Fold change vs veh, LOC101060439 /// RAP1B / RFU, RFX7 / Fold change vs veh, RFX7 / RFU, GTPBP10 / Fold change vs veh, GTPBP10 / RFU, CNEP1R1 / Fold change vs veh, CNEP1R1 / RFU, BIVM-ERCC5 /// ERCC5 / Fold change vs veh, BIVM-ERCC5 /// ERCC5 / RFU, ILF3 / Fold change vs veh, ILF3 / RFU 11762660_at / Fold change /veh 11762660_at / RFU VCAN (11757783_s_at) / Fold change /veh VCAN (11757783_s_at) / RFU DDX43 (11728927_at) / Fold change /veh DDX43 (11728927_at) / RFU KRT8 (11758188_x_at) / Fold change /veh KRT8 (11758188_x_at) / RFU NKD1 (11759106_at) / Fold change /veh NKD1 (11759106_at) / RFU SRD5A1 (11742802_a_at) / Fold change /veh SRD5A1 (11742802_a_at) / RFU TPSAB1 /// TPSB2 (11721975_s_at) / Fold change /veh TPSAB1 /// TPSB2 (11721975_s_at) / RFU GSTM3 (11746129_a_at) / Fold change /veh GSTM3 (11746129_a_at) / RFU IL23R (11737362_x_at) / Fold change /veh IL23R (11737362_x_at) / RFU TMEM51 (11727254_a_at) / Fold change /veh TMEM51 (11727254_a_at) / RFU PIWIL2 (11732686_x_at) / Fold change /veh PIWIL2 (11732686_x_at) / RFU ORM1 (11744905_x_at) / Fold change /veh ORM1 (11744905_x_at) / RFU CCDC152 (11743942_at) / Fold change /veh CCDC152 (11743942_at) / RFU ECM1 (11717891_a_at) / Fold change /veh ECM1 (11717891_a_at) / RFU IL23R (11748794_a_at) / Fold change /veh IL23R (11748794_a_at) / RFU TNFAIP8L3 (11732012_x_at) / Fold change /veh TNFAIP8L3 (11732012_x_at) / RFU MBOAT4 (11741988_at) / Fold change /veh MBOAT4 (11741988_at) / RFU 11764193_at / Fold change /veh 11764193_at / RFU TMEM53 (11763286_at) / Fold change /veh TMEM53 (11763286_at) / RFU MAGEB2 (11727129_at) / Fold change /veh MAGEB2 (11727129_at) / RFU TMEM200A (11744735_a_at) / Fold change /veh TMEM200A (11744735_a_at) / RFU CCDC152 (11751479_a_at) / Fold change /veh CCDC152 (11751479_a_at) / RFU FAM211A (11726209_a_at) / Fold change /veh FAM211A (11726209_a_at) / RFU RGS16 (11746705_a_at) / Fold change /veh RGS16 (11746705_a_at) / RFU VCAN (11755009_s_at) / Fold change /veh VCAN (11755009_s_at) / RFU RHOB (11743442_s_at) / Fold change /veh RHOB (11743442_s_at) / RFU RGS16 (11720943_a_at) / Fold change /veh RGS16 (11720943_a_at) / RFU RGS16 (11720944_at) / Fold change /veh RGS16 (11720944_at) / RFU, VPS4B / Fold change vs veh, VPS4B / RFU, CREB1 / Fold change vs veh, CREB1 / RFU, DNAJC13 / Fold change vs veh, DNAJC13 / RFU, GNAQ / Fold change vs veh, GNAQ / RFU, CDK5R1 / Fold change vs veh, CDK5R1 / RFU, ZRANB3 / Fold change vs veh, ZRANB3 / RFU, CUL4A / Fold change vs veh, CUL4A / RFU, CCNY / Fold change vs veh, CCNY / RFU, UFL1 / Fold change vs veh, UFL1 / RFU, COG3 / Fold change vs veh, COG3 / RFU, DIAPH2 / Fold change vs veh, DIAPH2 / RFU, SKA2 / Fold change vs veh, SKA2 / RFU, AFF3 / Fold change vs veh, AFF3 / RFU, LMF1 / Fold change vs veh, LMF1 / RFU, IPO11 / Fold change vs veh, IPO11 / RFU, DFFB / Fold change vs veh, DFFB / RFU, FOXP1 / Fold change vs veh, FOXP1 / RFU, CARD8 / Fold change vs veh, CARD8 / RFU, STRN3 / Fold change vs veh, STRN3 / RFU, ADK / Fold change vs veh, ADK / RFU, RASSF2 / Fold change vs veh, RASSF2 / RFU, WIPF1 / Fold change vs veh, WIPF1 / RFU, LARP1B / Fold change vs veh, LARP1B / RFU, RASA1 / Fold change vs veh, RASA1 / RFU, RB1 / Fold change vs veh, RB1 / RFU, PPFIA1 / Fold change vs veh, PPFIA1 / RFU, MAT2A / Fold change vs veh, MAT2A / RFU, CCT5 / Fold change vs veh, CCT5 / RFU, WDR92 / Fold change vs veh, WDR92 / RFU, CUX1 / Fold change vs veh, CUX1 / RFU, TTC7A / Fold change vs veh, TTC7A / RFU, TMEM135 / Fold change vs veh, TMEM135 / RFU, DEPTOR / Fold change vs veh, DEPTOR / RFU, CPM / Fold change vs veh, CPM / RFU, DNAJB6 / Fold change vs veh, DNAJB6 / RFU, CACNA2D3 / Fold change vs veh, CACNA2D3 / RFU, DTX4 / Fold change vs veh, DTX4 / RFU, TFCP2 / Fold change vs veh, TFCP2 / RFU, GMCL1 /// GMCL1P1 / Fold change vs veh, GMCL1 /// GMCL1P1 / RFU, AEBP2 / Fold change vs veh, AEBP2 / RFU, SNHG1 /// SNORD22 /// SNORD25 /// SNORD26 /// SNORD27 /// SNORD28 /// SNORD29 /// SNORD31 / Fold change vs veh, SNHG1 /// SNORD22 /// SNORD25 /// SNORD26 /// SNORD27 /// SNORD28 /// SNORD29 /// SNORD31 / Fold change (Aza/veh), C12orf56 (ProbeSet 11735607_a_at) / Fold change (ACY-1035/veh), C12orf56 (ProbeSet 11735607_a_at) / Fold change (Aza/veh), FGFR1OP (ProbeSet 11751329_s_at) / Fold change (ACY-1035/veh), FGFR1OP (ProbeSet 11751329_s_at) / Fold change (Aza/veh), VPS36 (ProbeSet 11739960_a_at) / Fold change (ACY-1035/veh), VPS36 (ProbeSet 11739960_a_at) / RFU SYPL1 (11715823_x_at) / Fold change /veh SYPL1 (11715823_x_at) / RFU IGFBP7 (11715501_s_at) / Fold change /veh IGFBP7 (11715501_s_at) / RFU REEP3 (11722064_at) / Fold change /veh REEP3 (11722064_at) / RFU IGLL1 (11728026_x_at) / Fold change /veh IGLL1 (11728026_x_at): dose or concentration left out as unconfirmed.

The values that follow come from article PMC5218480 (PLoS ONE, 2017).

Consider `Nc1ncn([C@@H]2O[C@H](CO)[C@@H](O)[C@H]2O)c(=O)n1` [azacitidine], for which the “RFU, UHRF1BP1L” value was 257.64 RFU.
